Common to all, as to type: cell-based
The target of test [1] is T1, N-formyl peptide receptor 2 (Homo sapiens, UniProt P25090).
T1 sequence (P25090 whole entry): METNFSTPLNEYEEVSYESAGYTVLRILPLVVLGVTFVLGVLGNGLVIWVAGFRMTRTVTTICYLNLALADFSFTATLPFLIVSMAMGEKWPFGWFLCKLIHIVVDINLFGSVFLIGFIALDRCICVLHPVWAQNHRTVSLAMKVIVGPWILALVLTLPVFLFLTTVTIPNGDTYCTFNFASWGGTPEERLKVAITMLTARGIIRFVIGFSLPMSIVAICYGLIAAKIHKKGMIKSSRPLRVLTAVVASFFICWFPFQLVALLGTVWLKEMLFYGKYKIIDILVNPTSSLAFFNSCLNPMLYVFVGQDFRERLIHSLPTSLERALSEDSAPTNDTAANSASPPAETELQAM
The test can be described thus: Agonist activity at ALX/FPR2 in human THP1 cells harboring NF-kB-Luc assessed as inhibition of LPS-induced NFkB signalling activation by measuring reduction in IL-12p70 secretion pretreated for 30 mins followed by LPS stimulation for 24 hrs by electrochemiluminescence assay.

For test [2], the target named is T1, N-formyl peptide receptor 2. In words: Agonist activity at ALX/FPR2 in human THP1 cells harboring NF-kB-Luc assessed as inhibition of LPS-induced NFkB signalling activation pretreated for 30 mins followed by LPS stimulation for 24 hrs by luciferase reporter gene assay.
The target is the same in test [3]. In words: Agonist activity at ALX/FPR2 in human THP1 cells harboring NF-kB-Luc assessed as inhibition of LPS-induced NFkB signalling activation by measuring reduction in TNFalpha secretion pretreated for 30 mins followed by LPS stimulation for 24 hrs by electrochemiluminescence assay.
Test [4] is filed under the species Homo sapiens. The test can be described thus: Activation of Luc-fused NFkB (unknown origin) expressed in non-stimulated human THP1 cells assessed as relative luminescence unit at 10^-6 M after 24 hrs by luciferase reporter gene assay (reference value: 100%). On the technique in general: Reporter assays use an easily measured gene product as a stand-in for the process of interest.

For test [5], the species on record is Homo sapiens. The test can be described thus: Activation of Luc-fused NFkB (unknown origin) expressed in non-stimulated human THP1 cells assessed as relative luminescence unit at 10^-7 M after 24 hrs by luciferase reporter gene assay (reference value: 100%).
The species named for test [6] is Homo sapiens. In words: Activation of Luc-fused NFkB (unknown origin) expressed in non-stimulated human THP1 cells assessed as relative luminescence unit at 10^-9 M after 24 hrs by luciferase reporter gene assay (reference value: 100%).
Test [7] is filed under the species Homo sapiens. The test can be described thus: Activation of Luc-fused NFkB (unknown origin) expressed in non-stimulated human THP1 cells assessed as relative luminescence unit at 10^-10 M after 24 hrs by luciferase reporter gene assay (reference value: 100%).
Test [8] is filed under the species Homo sapiens. In words: Activation of Luc-fused NFkB (unknown origin) expressed in non-stimulated human THP1 cells assessed as relative luminescence unit at 10^-12 M after 24 hrs by luciferase reporter gene assay (reference value: 100%).
For test [9], the target named is T1, N-formyl peptide receptor 2. The test can be described thus: Agonist activity at ALX/FPR2 in human THP1 cells harboring NF-kB-Luc assessed as inhibition of LPS-induced NFkB signalling activation by measuring reduction in IL-1beta secretion pretreated for 30 mins followed by LPS stimulation for 24 hrs by electrochemiluminescence assay.
For test [10] the target is unchanged. The test can be described thus: Agonist activity at ALX/FPR2 in human THP1 cells harboring NF-kB-Luc assessed as inhibition of LPS-induced NFkB signalling activation by measuring reduction in IFNgamma secretion pretreated for 30 mins followed by LPS stimulation for 24 hrs by electrochemiluminescence assay.
For test [11] the target is unchanged. The test can be described thus: Agonist activity at ALX/FPR2 in human THP1 cells harboring NF-kB-Luc assessed as inhibition of LPS-induced NFkB signalling activation by measuring reduction in IL-6 secretion pretreated for 30 mins followed by LPS stimulation for 24 hrs by electrochemiluminescence assay.
Test [12] is filed under the species Homo sapiens. The test can be described thus: Activation of Luc-fused NFkB (unknown origin) expressed in non-stimulated human THP1 cells assessed as relative luminescence unit at 10^-11 M after 24 hrs by luciferase reporter gene assay (reference value: 100%).
The species entered for test [13] is Homo sapiens. The test can be described thus: Activation of Luc-fused NFkB (unknown origin) expressed in non-stimulated human THP1 cells assessed as relative luminescence unit at 10^-8 M after 24 hrs by luciferase reporter gene assay (reference value: 100%).

As usually defined, the IC50 is the concentration at which inhibition is half-maximal.

Consider `CCC[C@@H](O)c1c(/C=C/[C@@H](O)[C@@H](O)CCCC(=O)OC)nc(C)n1C`, for which the 50% inhibitory concentration (IC50) in [1] (read-out: IC50) amounted to 3.4 nM; in test [2] it was 40.3 nM; in [3] (read-out: IC50), 4.8 nM; in test [9] (read-out: IC50), 3.7 nM; in test [10] (read-out: IC50), 4.3 nM; in [11] (read-out: IC50), 55.8 nM. The Activity in the test listed under Homo sapiens [4] turned out to be 0.9%; in the test listed under Homo sapiens [5] it was 1.4%; in the test filed under Homo sapiens [6] it was 2.2%; in the test filed under Homo sapiens [7] it was 1.8%; in the test listed under Homo sapiens [8], 1.8%; in the test filed under Homo sapiens [12] it was 1.6%.

As to `CCC[C@H](O)c1c(/C=C/[C@@H](O)[C@@H](O)CCCC(=O)OC)nc(C)n1C`, the IC50 in test [1] (read-out: IC50) is 6 nM; in test [2], 31.5 nM; in [3], “Not Active”; in test [9] (read-out: IC50), 3.6 nM; in test [10] (read-out: IC50) it was 0.9 nM; in test [11], “Not Active”. Also, the Activity in the test filed under Homo sapiens [4] came to 1.3%; in the test listed under Homo sapiens [5] it was 1.4%; in the test filed under Homo sapiens [6] it was 1.7%; in the test filed under Homo sapiens [7] it was 3.2%; in the test listed under Homo sapiens [8], 1.4%; in the test listed under Homo sapiens [12], 1.9%. Further, in the test listed under Homo sapiens [13], the Activity was found to be 1.6%.

For `CCCCC[C@H](O)c1c(/C=C/[C@@H](O)[C@@H](O)CCCC(=O)OC)nc(C)n1C`, the IC50 in test [1] (read-out: IC50) turned out to be 0.1 nM; in test [2], 25.3 nM; in test [3] (read-out: IC50), 3.4 nM; in [9] (read-out: IC50), 2.6 nM; in test [10] (read-out: IC50), 2.2 nM; in test [11] (read-out: IC50), 60.6 nM. The Activity in the test listed under Homo sapiens [4] was 5.5%; in the test filed under Homo sapiens [5], 3.7%; in the test filed under Homo sapiens [6] it was 4.6%; in the test listed under Homo sapiens [7], 8.9%; in the test filed under Homo sapiens [8] it was 5.2%; in the test filed under Homo sapiens [12] it was 4.4%.

In the case of `COC(=O)CCC[C@H](O)[C@H](O)/C=C/c1nc(C)n(C)c1[C@@H](C)O`, the IC50 in [1] (read-out: IC50) is 3.8 nM; in [2], 27.8 nM; in test [3] it was “Not Active”; in test [9] it was “Not Active”; in test [10] it was “Not Active”; in test [11], “Not Active”. For the same compound, the Activity in the test filed under Homo sapiens [4] was found to be 9.6%; in the test filed under Homo sapiens [5], 9.4%; in the test listed under Homo sapiens [6], 8.8%; in the test listed under Homo sapiens [7], 9.3%; in the test filed under Homo sapiens [8] it was 9.7%; in the test filed under Homo sapiens [12], 8.8%. Besides, in the test filed under Homo sapiens [13], the Activity was 10.4%.

Consider `CCCCC[C@@H](O)c1nc(-c2ccccc2)oc1/C=C/[C@@H](O)[C@@H](O)CCCC(=O)OC(C)C`, for which the IC50 result is “Not Active” in test [1]; 37.3 nM in test [2]; 6.5 nM in test [3] (read-out: IC50); “Not Active” in test [9]; “Not Active” in test [10]; 6.8 nM in test [11] (read-out: IC50). For the same compound, the Activity turned out to be 2.7% in the test listed under Homo sapiens [4]; 3% in the test filed under Homo sapiens [5]; 2.7% in the test listed under Homo sapiens [6]; 3.2% in the test listed under Homo sapiens [7]; 3.4% in the test filed under Homo sapiens [8]; 2.8% in the test filed under Homo sapiens [12]. In addition, in the test filed under Homo sapiens [13], the Activity turned out to be 2.6%.

Regarding `COC(=O)CCC[C@H](O)[C@H](O)/C=C/c1nc(C)n(C)c1[C@H](C)O`, the IC50 entry is “Not Active” in test [1]; 27.8 nM in [2]; “Not Active” in [3]; “Not Active” in test [9]; “Not Active” in test [10]; “Not Active” in test [11]. Also, the Activity in the test filed under Homo sapiens [4] came to 2.4%; in the test filed under Homo sapiens [5] it was 3.5%; in the test listed under Homo sapiens [6], 3.4%; in the test filed under Homo sapiens [7], 4.5%; in the test listed under Homo sapiens [8], 3.1%.

For the origin of these results see ChEMBL document CHEMBL4382216, “Asymmetric synthesis and biological evaluation of imidazole- and oxazole-containing synthetic lipoxin A4 mimetics (sLXms)” (Eur J Med Chem, 2019).
